Data published in patent US6875891B2, “Process for preparing highly water soluble double salts of hydroxycitric acid particularly alkali and alkaline earth metal double salts” (Laila Impex, priority 2003, dated 2005).

Columns and labels:
[1] = background statement on known salts; cited from earlier work
[2] = background statement; cited from earlier work
[3] = equilibration between free acid form and lactone form when dissolved in water; type: physicochemical

Q: For `O=C([O-])C[C@@](O)(C(=O)[O-])[C@H](O)C(=O)[O-].O=C([O-])C[C@@](O)(C(=O)[O-])[C@H](O)C(=O)[O-].[Ca+2].[Ca+2].[Ca+2]` [calcium salt, calcium salt of hydroxycitric acid], which solubility in water [1] is on record?
A: poorly soluble in water

Q: For `O=C([O-])C[C@@](O)(C(=O)[O-])[C@H](O)C(=O)[O-].[K+].[K+].[K+]` [tripotassium salt], which hygroscopicity [2] is on record?
A: highly hygroscopic

Q: Which “equilibration between free form and lactone form of hydroxycitric acid” value [3] does the source give for “calcium/potassium double salt of hydroxycitric acid [Ca/K double salt]” here?
A: does not equilibrate between the free form and the lactone form
